The values that follow come from article PMC6154339, “Synthesis, Characterization, Antimicrobial and Antiproliferative Activity Evaluation of Cu(II), Co(II), Zn(II), Ni(II) and Pt(II) Complexes with Isoniazid-Derived Compound” (Molecules : A Journal of Synthetic Chemistry and Natural …, 2017).

Each structure is given as a SMILES string. Read-outs that look alike come from different tables or passages of the source. Bounds are passed on as bounds.

Broadly, the MIC is the least concentration at which growth counts as inhibited. Read a low MIC as greater potency. For orientation: LC50 means the concentration that kills 50% of the test population. A low value points to a more lethal substance.

A short description of series [1]: Solubility in compendial aqueous media. The series is classed as physicochemical. Conditions: 37 °C, 30 min, mean ± standard deviation, n = 3. On the procedure: Solubility assessment was conducted in compendial aqueous solutions prepared according to United States Pharmacopoeia USP39/NF34): hydrochloric acid 0.1 N pH 1.2, acetate buffer pH 4.5 and phosphate buffer 6.8. These buffer systems are routinely used for screening of drug dissolution testing and they simulate the pH values of proximal gastrointestinal regions. The standard samples were prepared by diluting the stock solution of 80 µg/mL in dimethyl sulfoxide (with 0.2% pyridine, v/v) with corresponding media. The reagents were of analytical grade and used as received.
The assay was performed using a SpectraMax Plus 84 Plate reader reader (Sunnyvale, CA, USA), Molecular Devices LLC (US), equiped with SoftMax software version 6.4.2 (Sunnyvale, CA, USA). Separate plates were loaded with standard solutions in nine concentrations (0.2 to 80 µg/mL). For evaluation of the aqueous solubility, the samples were prepared in triplicate by adding 10 µL of the stock solution to the wells loaded with 190 µL of each buffer, using MultiScreen HTS plates (PCF, code MSSLBPC, Merck Millipore, Darmstadt, Germany). After 30 minutes of incubation at 37 ± 0.5 °C under agitation (250 rpm, IKA KS 4000 ic control, IKA, Staufen, Germany), the plates were filtrated under vacuum using a Vac-Man 96 Vacuum manifold (Promega Corporation, Madison, WI, USA). The solutions were collected in V-bottom polypropylene 96-well microplates (Greiner Bio-One, Kremsmünster, Austria). Volumes of 100 µL were transferred to UV-Star 96-well microplate with flat bottom (Chimney well, Grained Bio-One) and diluted by addition of 100 µL of the corresponding medium. The absorbance corresponding to each well was determined at fixed wavelengths: 280, 300, 320, 340, 360 and 800 nm. The reduced value of absorbance, calculated by the sum of the values recorded at the six wavelengths, were used for the calibration curve and subsequent determination of concentration in each solubility sample.

The subject of series [2] is Escherichia coli, ATCC 25922. In words: Antibacterial activity, serial dilutions in liquid broth (MIC/MBC). Format: cell-based. Conditions: E. coli (G −). An excerpt: (§1) All synthesized complexes and the ligand were screened for their in vitro antibacterial activity against Gram-positive bacteria (Staphylococcus aureus), Gram-negative bacteria (Escherichia coli, Klebsiella pneumoniae) and antifungal activity (Candida albicans) strains using the paper disc diffusion technique (for the qualitative determination) and the serial dilutions in liquid broth method (for determination of MIC). Furacillinum and nystatine were used as standard drugs.
(§2) The antibacterial activity of complexes and also of their prototype furacilin has been determined under liquid nutritive environment (2% of peptonate bullion (pH 7.0)) using the successive dilutions method. Escherichia coli, Klebsiella pneumoniae, and Staphylococcus aureus stems were used as reference culture for the in vitro experiment. The dissolution of studied substances in dimethylformamide, microorganism cultivation, suspension obtaining, determination of minimal inhibition concentration (MIC) and minimal bactericide concentration (MBC) have been carried out according to the method previously reported.

Series [3] relates to Klebsiella pneumoniae, ATCC 31,488. The series is described as above. The series is classed as cell-based. The following applies: K. pneumoniae (G −).
Text: as §1, §2

The subject of series [4] is Staphylococcus aureus, ATCC 25923. The description is as above. The series is classed as cell-based. Conditions: S. aureus (G +).
Text: as §1, §2

Series [5] deals with Candida albicans. In words: Antifungal (antimycotic) activity, liquid Sabouraud medium (MIC/MBC). The series is classed as cell-based. Conditions: C. albicans.
Text: as §1
Antimycotic properties of the complexes were investigated in vitro on laboratory stem Candida albicans. The activity has been determined in a liquid Sabouraud nutritive environment (pH 6.8). The inoculates were prepared from fungi stems which were harvested over 3–7 days. Their concentration in suspension is (2–4) × 10^6 colonies form unities in milliliter. Sowings for levures and micelles were incubated at 37 °C during 7 and 14 days, respectively.

Series [6] concerns A375 human melanoma cell line. In words: Alamar blue cell viability assay. The series is classed as cell-based. The following applies: 48 h treatment, 10 µM, relative to untreated control. The procedure: (§3) Compounds HL, 1, 5, 6 and 8 were dissolved in dimethyl sulfoxide (DMSO; Sigma-Aldrich, Ayrshire, UK) and stored at 2–8 °C. Compounds 2, 3, 4 and 7 were dissolved in pyridine (Fluka, Munich, Germany). A stock solution of 10 mM in the proper solvents was prepared; as for the final concentration (10 µM), successive dilution of the stock solution with culture medium was made.
(§4) The breast cancer cell lines were cultured as follow: MCF-7 human breast cancer cell line (ATCC, Rockville, MD, USA) was cultured in EMEM (Sigma Aldrich, Munich, Germany) supplemented with 10% FCS (fetal bovine serum, PromoCell, Heidelberg, Germany), 1% penicillin-streptomycin (Pen/Strep, 10,000 IU/mL; PromoCell, Heidelberg, Germany), 1% nonessential amino acids and 1% glutamine (PromoCell, Heidelberg, Germany). SKBR-3 human breast cancer cell line was cultured in McCoy’s 5a Medium Modified (Sigma Aldrich, Munich, Germany) supplemented with 10% FCS (fetal bovine serum, PromoCell, Heidelberg, Germany), 1% penicillin-streptomycin (Pen/Strep, 10,000 IU/mL; PromoCell, Heidelberg, Germany). A375 human melanoma cell line was cultured in DMEM containing 15% FCS (fetal bovine serum, PromoCell, Heidelberg, Germany) and 1% penicillin-streptomycin (Pen/Strep, 10,000 IU/mL; PromoCell, Heidelberg, Germany). Cells were maintained at an atmosphere of 5% CO2 at 37 °C. NCI-H1573 lung adenocarcinoma cell line was cultured in RPMI-1640 Medium (ATCC, Rockville, MD, USA) supplemented with 10% FCS (fetal bovine serum, PromoCell, Heidelberg, Germany), 1% penicillin-streptomycin (Pen/Strep, 10,000 IU/mL; PromoCell, Heidelberg, Germany).
(§5) All tested cell lines were seeded onto a 96-well microplate ([…]) and left overnight to attach to the bottom of the well. After 24 h, the amount of 150 μL of the tested substances dissolved into the culture medium was added and cells were incubated for 48 h. After the incubation period, a volume of 15 μL of the Alamar blue (BioSource, Camarillo, CA, USA) solution was added. After another 10 h of incubation at 37 °C, the samples were spectrophotometrically analyzed using a microplate reader. The wave lengths used were 570 nm and 600 nm, respectively. Wells with untreated cells were used as controls. The highest concentration of DMSO and pyridine (0.1%) used to prepare stock solutions was also tested, in order to identify the solvent activity. All measurements were performed in triplicate and data were presented as mean ± standard deviation.

Series [7] deals with MCF-7 human breast cancer cell line. In words: Alamar blue cell viability assay. The series is classed as cell-based. The following applies: 48 h treatment, 10 µM, relative to untreated control. On the procedure: as §3, §4, §5
Background: The colour change of resazurin is a common sign of viable cells or microbes.

For series [8], the system named is NCI-H1573 lung adenocarcinoma cell line. Put plainly: Alamar blue cell viability assay. Format: cell-based. Conditions: 48 h treatment, 10 µM, relative to untreated control. The procedure: as §3, §4, §5
Series [9] relates to SKBR-3 human breast cancer cell line. In words: Alamar blue cell viability assay. Format: cell-based. Conditions: 48 h treatment, 10 µM, relative to untreated control. On the procedure:
as §3, §4, §5

Series [10] is described as follows: Qualitative solubility in organic solvents. The series is classed as physicochemical.
Series [11] has as its system Daphnia magna.
The mark [12] stands for this setting: Hydrochloric Acid 0.1 N (pH = 1.2).

On to `CC(=O)[O-].COc1cccc(C=NNC(=O)c2ccncc2)c1[O-].[Cu+2]` [complex 2, [Cu(L)(CH3COO)]], for which the “solubility in compendial media” value is reported as 1.27 ± 0.06 µg/mL in series [1] (Acetate Buffer (pH = 4.5)), 1.75 ± 0.54 µg/mL in [1] (setting [12]) and under 0.2 µg/mL in series [1] (Phosphate Buffer (pH = 6.8)). Besides, the MBC in [2] stood at 500 µg/mL; in series [3], 500 µg/mL; in [4], 0.015 µg/mL; in series [5] it was 250 µg/mL. Also, the MIC in [2] was found to be 500 µg/mL; in [3], 500 µg/mL; in [4], 0.015 µg/mL; in [5] it was 125 µg/mL. In addition, the Viability % in series [6] was found to be 0.73%; in series [7] it was 2.10%; in series [8], 7.22%; in [9], 6.88%. Besides, the “solubility in organic solvents (qualitative)” value (“solubility in organic solvents” for short) in series [10] was “soluble in pyridine and is partially soluble in ethanol, methanol, acetonitrile, acetone, DMF and DMSO”. In addition, the results for the LC50 in [11] (incubation period 24 h) and in series [11] (incubation period 48 h) were 69.6 µM and 13.1 µM, respectively.

For `COc1cccc(C=NNC(=O)c2ccncc2)c1[O-].O.[Cu+2].[O-][Cl+3]([O-])([O-])[O-]` [complex 4, [Cu(L)(ClO4)]·H2O], the entries for the “solubility in compendial media” value in series [1] (Acetate Buffer (pH = 4.5)), in series [1] (setting [12]) and in [1] (Phosphate Buffer (pH = 6.8)) were 1.67 ± 0.28 µg/mL, 0.82 ± 0.6 µg/mL and under 0.2 µg/mL, respectively. Besides, the MBC in series [2] is recorded as 500 µg/mL; in series [3], 500 µg/mL; in series [4] it was 0.7 µg/mL; in series [5] it was 0.7 µg/mL. Further, the minimum inhibitory concentration (MIC) in [2] amounted to 250 µg/mL; in series [3] it was 250 µg/mL; in series [4], 0.7 µg/mL; in series [5] it was 0.7 µg/mL. For the same molecule, the Viability % in series [6] is 0.70%; in series [7] it was 3.43%; in [8], 10.05%; in [9], 48.72%. In addition, in series [10], the “solubility in organic solvents” value was “soluble in pyridine and is partially soluble in ethanol, methanol, acetonitrile, acetone, DMF and DMSO”.

On to `COc1cccc(C=NNC(=O)c2ccncc2)c1[O-].COc1cccc(C=NNC(=O)c2ccncc2)c1[O-].[Zn+2]` [complex 6, [Zn(L)2]], for which the “solubility in compendial media” value is given as 1.56 ± 0.82 µg/mL in series [1] (Acetate Buffer (pH = 4.5)), 1.65 ± 0.06 µg/mL in [1] (setting [12]) and under 0.2 µg/mL in series [1] (Phosphate Buffer (pH = 6.8)). Further, the MBC in series [2] was 250 µg/mL; in series [3], 250 µg/mL; in series [4] it was 125 µg/mL; in series [5], 125 µg/mL. Further, the MIC in [2] is 125 µg/mL; in series [3] it was 250 µg/mL; in series [4] it was 63 µg/mL; in series [5] it was 125 µg/mL. For the same molecule, the Viability % is 71.66% in [6], 17.72% in [7], 33.77% in [8] and 61.43% in series [9]. The “solubility in organic solvents” value in series [10] is “soluble in pyridine, DMF and DMSO, and is partially soluble in ethanol, methanol, acetonitrile, acetone”.

In the case of `COc1cccc(C=NNC(=O)c2ccncc2)c1[O-].O.O=[N+]([O-])[O-].[Cu+2]` [complex 3, [Cu(L)(NO3)]·H2O], the “solubility in compendial media” value is on record as 1.69 ± 0.18 µg/mL in series [1] (Acetate Buffer (pH = 4.5)), 0.92 ± 0.11 µg/mL in [1] (setting [12]) and under 0.2 µg/mL in [1] (Phosphate Buffer (pH = 6.8)). Moreover, the MBC in [2] is on record as 500 µg/mL; in [3], 500 µg/mL; in series [4], 0.15 µg/mL; in [5] it was 3 µg/mL. The MIC in series [2] was determined as 500 µg/mL; in series [3] it was 500 µg/mL; in series [4], 0.07 µg/mL; in series [5], 1.5 µg/mL. The Viability % is 1.59% in series [6], 2.44% in series [7], 12.14% in series [8] and 62.65% in series [9]. Further, the “solubility in organic solvents” value in series [10] is “soluble in pyridine and is partially soluble in ethanol, methanol, acetonitrile, acetone, DMF and DMSO”. For the same molecule, the figures for the median lethal concentration (LC50) in series [11] (incubation period 24 h) and in series [11] (incubation period 48 h) were 317 µM and 5.61 µM, respectively.

On to `COc1cccc(C=NNC(=O)c2ccncc2)c1[O-].COc1cccc(C=NNC(=O)c2ccncc2)c1[O-].[Co+2]` [complex 5, [Co(L)2]], for which the “solubility in compendial media” value in [1] (Acetate Buffer (pH = 4.5)) is given as 1.62 ± 0.72 µg/mL; in [1] (setting [12]), under 0.2 µg/mL; in [1] (Phosphate Buffer (pH = 6.8)), under 0.2 µg/mL. The MBC worked out at 500 µg/mL in series [2], 500 µg/mL in series [3], 0.7 µg/mL in series [4] and 250 µg/mL in series [5]. The MIC in [2] came to 250 µg/mL; in series [3] it was 500 µg/mL; in series [4] it was 0.7 µg/mL; in [5] it was 125 µg/mL. For the same molecule, the Viability % in series [6] is on record as 88.96%; in [7], 55.61%; in series [8], 89.79%; in series [9] it was 76.68%. The “solubility in organic solvents” value in series [10] was “soluble in pyridine, DMF and DMSO, and is partially soluble in ethanol, methanol, acetonitrile, acetone”. Moreover, the LC50 in series [11] (incubation period 24 h) is 278 µM; in series [11] (incubation period 48 h) it was 2.38 µM.
